Test results from publication PMC7098963, “Pharmacophore-Based Virtual Screening Toward the Discovery of Novel Anti-echinococcal Compounds” (Frontiers in Cellular and Infection Microbiology, 2020).
Where two headings read alike, the source gives them in different places.

Assays:
[1] = Pharmacokinetics analysis in plasma of mice; type: in vivo, BALB/c mice; settings: for MRT last: read-out: MRT(0–t)
Method: To study the relationship between pharmacokinetic characteristics and treatment efficacy in vivo, compounds were administered by oral (50 mg/kg) and intramuscular (12.5 mg/kg) methods to healthy BALB/c mice ([…]). Subgroups of 3 mice each were bled at 0.25, 0.5, 1, 2, 4, 8, 16, 24, 32, and 48 h post-administration. Then, 300 μl samples of plasma were collected and centrifuged at 2,500 g for 15 min. The compounds in the plasma were extracted on Oasis HLB cartridges (Waters, Massachusetts, USA) with praziquantel as the internal standard. The HPLC-HRMS system used for separation and analysis consisted of an Accela 1250 pump, a PAL HTC autosampler, an Accela PDA detector and an Xcalibur data system (Thermo Fisher Scientific, Waltham, MA, USA). Compounds were separated on a 3-μm Waters Atlantis 2.1 mm × 100 mm column (Massachusetts, USA) with a mobile phase containing methanol and formic acid at a flow rate of 0.35 ml/min. The data were analyzed by the non-compartmental model present in DAS 2.0 (Drug Analysis System, Shanghai University of T.C.M, China). Detailed pharmacokinetic experimental methods, including a representative HPLC-MS chromatogram, a standard curve, and a plot used to confirm precision, are shown in the Supplementary Data.

E. multilocularis = assay: Compound efficacy in E. multilocularis-infected mice; settings: for deaths of mice during the 28-days treatment: n = 10; for treatment efficacy versus control group, in words: 25 and 50 mg/kg/day oral; for treatment efficacy versus control group, in words / Mean cyst weight reduction (inhibition rate): 28 days; for Mean cyst weight reduction (inhibition rate): infected BALB/c mice
Method: E. multilocularis-infected animals [BALB/c mice (SLAC Laboratory Animal Center)] were maintained by serial i.p. transplantation passages through for 6 months, the details can be found in our published paper (Liu et al., [2019]). Eighty infected BALB/c mice were prepared for in vivo treatment experiments. Parasite materials were isolated from the peritoneal cavity of the infected animals and homogenized with Hanks' balanced salt solution (HBSS). Then, after passing the parasite homogenate through a 60-mesh sieve, the E. multilocularis PSCs were collected and rinsed 5~8 times. The viability of the PSCs was determined by the methylene blue exclusion method (Liu et al., [2018]), and PSCs with > 95% viability were used in the following experiments. The PSCs were cultured in RPMI 1,640 medium supplemented with 10% CS and antibiotics (100 U/ml penicillin G and 100 μg/ml streptomycin) at 37°C in 5% CO2.
The remaining mice were orally administered 1% tragacanth solution (1% TRA) as a control. All of the mice were euthanized 2 weeks after finishing the treatment, and all of the cysts were isolated and weighed. The efficacy of the treatments was assessed based on the mean cyst weight as previously described (Liu et al., [2015]).
The LC50 and Tox50 values were calculated by the probability unit method with SPSS version 17.0. The differences in mean cyst weight were analyzed by ANOVA in SPSS 17.0, and P < 0.05 was considered statistically significant.

Chang liver cells = assay: Cytotoxicity test, Chang liver cells (CCK-8); type: cell-based; settings: for Tox50 Changliver cell: 72 h, CCK-8, 6.25~100 μM; for inhibition at 100 µM: Chang liver, read-out: inhibition rate, Chang liver cell
Method: (§1) Cytotoxicity was determined using Chang liver cells and A172 cells in DMEM with 10% FBS as previously described (Liu et al., [2018]). The final concentrations of the test compounds were 3.125~50 μM for A172 cells and 6.25~100 μM for Chang liver cells. After 72 h, the cell viabilities were determined using a CCK-8 kit. The concentration that induced 50% cell toxicity (Tox50) was then calculated.

[2] = tested on: E. multilocularis protoscoleces; assay: In vitro drug screen with E. multilocularis protoscoleces (methylene blue exclusion); type: cell-based; settings: Echinococcus multilocularis, read-out: LC50 E. multilocularis PSC
Method: In vitro treatment of PSCs was performed in 96-well microtiter plates (Costar, USA) containing 100 PSCs per 200 μl. A solution of the test compound (6.25~100 μM) was added to each well. Nitazoxanide and mebendazole (25 μM) were used as positive controls, while RPMI 1640 medium and RPMI 1640 with 0.25% DMSO were used as negative controls. […] All experiments were carried out in triplicate and repeated at least twice.

A172 cells = assay: Cytotoxicity test, A172 cells (CCK-8); type: cell-based; settings: for Tox50 A172 cell: 72 h, CCK-8, 3.125~50 μM; for effect on proliferation of cancer cells (A172 cells), in words: CCK-8
Method: as §1

[3] = Pharmacokinetics analysis in plasma of mice; type: in vivo, BALB/c mice; settings: drug and plasma samples left overnight
[4] = BALB/c, im, mouse plasma, intramuscular 12.5 mg/kg
[5] = BALB/c, mouse, plasma, im, 12.5 mg/kg, intramuscular 12.5 mg/kg, read-out: Cmax
[6] = BALB/c, mouse, plasma, po, 50 mg/kg, oral 50 mg/kg, read-out: Cmax
[7] = BALB/c, mouse plasma, oral 50 mg/kg
[8] = mouse plasma, intramuscular 12.5 mg/kg
[9] = 72 h incubation, 6.25~100 μM, methylene blue exclusion

## OC(COc1ccc(F)cc1)CN1CCN(C(c2ccccc2)c2ccccc2)CC1 (stereo not drawn) [BTB4]
[1]; [4]
  Tmax: 4.67 ± 3.06 h
  MRT last: 16 ± 1.13 h
[1]; [5]
  Cmax: 86.4 ± 4.02 ng/mL
[1]; [6]
  Cmax: 225 ± 55.4 ng/mL
[1]; [7]
  Tmax: 2 h
  MRT last: 8.08 ± 1.55 h
[1]; [8]
  AUC(0–t): 1589.90 ± 165.13 ng·h/mL
[1]; mouse plasma, oral 50 mg/kg
  AUC(0–t): 1692.29 ± 341.00 ng·h/mL
E. multilocularis; 25 mg/kg/day oral
  deaths of mice during the 28-days treatment: 2 mice
E. multilocularis; 50 mg/kg/day oral
  deaths of mice during the 28-days treatment: 4 mice
E. multilocularis
  treatment efficacy versus control group, in words: ineffective

## COc1cccc(NC(=O)CN(C)CC(=O)Nc2ccc(F)c(Cl)c2)c1 [Compound S1]
Chang liver cells
  Tox50 Changliver cell: 43.98 ± 1.38 µM
[2]; [9]
  LC50: 20.4 ± 0.51 µM

## O=C(CC1CCC(c2c[nH]c3ccccc23)CC1)Nc1cccc(Cl)c1 (stereo not drawn) [Compound S5]
A172 cells
  Tox50 A172 cell: 11.98 ± 0.91 µM
  effect on proliferation of cancer cells (A172 cells), in words: inhibited the proliferation
Chang liver cells
  Tox50 Changliver cell: 42.44 ± 0.34 µM
[2]; [9]
  LC50: 18.6 ± 1 µM

## O=C(CC1CCC(c2c[nH]c3ccccc23)CC1)Nc1cc(Cl)ccc1Cl (stereo not drawn) [Compound S6]
A172 cells
  Tox50 A172 cell: 11.00 ± 5.00 µM
  effect on proliferation of cancer cells (A172 cells), in words: inhibited the proliferation
[1]; [6]
  Cmax: 1 ng/mL
[1]; [7]
  Tmax: 4.33 ± 3.51 h
  MRT last: 4.34 ± 2.59 h
[1]; [8]
  plasma concentration, in words: below the detection limit
[1]; mouse plasma, oral 50 mg/kg
  AUC(0–t): 5.10 ± 4.64 ng·h/mL
[1]; mouse plasma, oral 50 mg/kg, 50 mg/kg
  Cmax: 1.55 ± 1.01 ng/mL
Chang liver cells
  inhibition at 100 µM: 24.6%
E. multilocularis; 25 mg/kg/day oral gavage
  Mean cyst weight reduction (inhibition rate): 9.53%
E. multilocularis; 50 mg/kg/day oral gavage
  Mean cyst weight reduction (inhibition rate): 14.43%
E. multilocularis
  treatment efficacy versus control group, in words: no significant difference
[3]
  stability in plasma samples: detectable concentration: greatly reduced
[2]; 72 h
  LC50: 17 ± 0.93 µM

## Cc1ccc(C)c(NC(=O)CC2CCC(c3c[nH]c4ccccc34)CC2)c1 (stereo not drawn) [Compound S11]
A172 cells
  Tox50 A172 cell: 22.72 ± 1.37 µM
  effect on proliferation of cancer cells (A172 cells), in words: inhibited the proliferation
Chang liver cells
  inhibition at 100 µM: 42.1%
[2]; [9]
  LC50: 18.7 ± 0.87 µM

## CN(CC(=O)Nc1cccc(F)c1)CC(=O)Nc1cccc2ccccc12 [Compound S16]
A172 cells
  Tox50 A172 cell: 21.00 ± 6.24 µM
  effect on proliferation of cancer cells (A172 cells), in words: inhibited the proliferation
Chang liver cells
  inhibition at 100 µM: 34.6%
[2]; [9]
  LC50: 17.4 ± 0.2 µM

## C[C@H](C(=O)N(C)Cc1ccccc1)N(C)CC(=O)Nc1cccc2ccccc12 [Compound S19]
A172 cells
  Tox50 A172 cell: 22.54 ± 1.79 µM
  effect on proliferation of cancer cells (A172 cells), in words: inhibited the proliferation
Chang liver cells
  inhibition at 100 µM: 36.5%
[2]; [9]
  LC50: 18.8 ± 1.7 µM

## CCN(CC(=O)Nc1cc(Cl)cc(Cl)c1)Cc1nc(=O)c2ccc(Cl)cc2[nH]1 [Compound S28]
A172 cells
  Tox50 A172 cell: 20.99 ± 4.12 µM
  effect on proliferation of cancer cells (A172 cells), in words: inhibited the proliferation
Chang liver cells
  Tox50 Changliver cell: 35.41 ± 0.62 µM
[2]; [9]
  LC50: 19.9 ± 0.31 µM

## Cc1ccnc(NC(=O)C2CCN(CCC(=O)Nc3ccc4c(c3)CCC4)CC2)c1 [Compound S31]
[2]; 72 h
  LC50: 19.2 ± 0.8 µM

## CN(C)[C@@H](CNC(=O)C[C@H]1Sc2ccc(Cl)cc2NC1=O)Cc1ccccc1 [Compound S39]
Chang liver cells
  Tox50 Changliver cell: 51.46 ± 3.34 µM
[2]; [9]
  LC50: 17.7 ± 0.74 µM

## COc1ccc([C@H]2CCCN2CC(=O)NCc2cccc(Cl)c2)c(OC)c1 [Compound S59]
Chang liver cells
  Tox50 Changliver cell: 66.53 ± 2.99 µM
[2]; [9]
  LC50: 19.6 ± 0.56 µM

## OC(CN1CCCCC1)Cn1c2ccc(Cl)cc2c2cc(Cl)ccc21 (stereo not drawn) [HT3]
[1]; [4]
  Tmax: 1 h
  MRT last: 18.1 ± 2.38 h
[1]; [5]
  Cmax: 39.6 ± 11.2 ng/mL
[1]; [6]
  Cmax: 122 ± 42.6 ng/mL
[1]; [7]
  Tmax: 0.33 ± 0.14 h
  MRT last: 4.16 ± 0.85 h
E. multilocularis; 25 mg/kg/day oral
  deaths of mice during the 28-days treatment: 2 mice
E. multilocularis; 50 mg/kg/day oral
  deaths of mice during the 28-days treatment: 3 mice
E. multilocularis
  treatment efficacy versus control group, in words: ineffective

## COC(=O)Nc1nc2ccc(C(=O)c3ccccc3)cc2[nH]1 [MBZ, mebendazole, reference compound]
E. multilocularis; 25 mg/kg/day oral gavage
  Mean cyst weight reduction (inhibition rate): 39.66%
E. multilocularis; 25 mg/kg/day oral
  deaths of mice during the 28-days treatment: 1 mice
